Article PMC13221243, “Crosstalk Between Lysine Lactylation and Acetylation Regulates Lactate Dehydrogenase in Streptococcus mutans” (Genomics, Proteomics & Bioinformatics, 2025)

Key:
ActA [1] = target: T1, ActA (Streptococcus mutans, UniProt Q8DVT1); assay: in vitro acylation of LDH, anti-Kla Western blot; type: biochemical; conditions: acyl acceptor recombinant LDH; pH 7.5, 10 mM MgCl2, 37°C, 3 h
T1 construct: gene SMU_386; recombinant His-tagged from pET28a, E. coli BL21(DE3), nickel purified
T1 sequence (Q8DVT1 1-144): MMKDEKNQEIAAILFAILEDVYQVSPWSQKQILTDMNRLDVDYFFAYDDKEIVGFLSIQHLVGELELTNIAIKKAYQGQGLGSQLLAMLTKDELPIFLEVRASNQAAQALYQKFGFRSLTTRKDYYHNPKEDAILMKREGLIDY

ActA [2] = target: T1, ActA; assay: in vitro acylation of LDH, anti-Kac Western blot; type: biochemical; conditions: acyl acceptor recombinant LDH; pH 7.5, 10 mM MgCl2, 37°C, 3 h

SMILES	in vitro acylation of LDH, anti-Kla Western blot (ActA [1])	in vitro acylation of LDH, anti-Kac Western blot (ActA [2])
CC(O)C(=O)SCCNC(=O)CCNC(=O)[C@H](O)C(C)(C)COP(=O)(O)OP(=O)(O)OC[C@H]1O[C@@H](n2cnc3c(N)ncnc32)[C@H](O)[C@@H]1OP(=O)(O)O (some centres unmarked) [La-CoA]	However, ActA significantly increased the levels of Kla and Kac in LDH enzymatically.	–
CC(=O)SCCNC(=O)CCNC(=O)[C@H](O)C(C)(C)COP(=O)(O)OP(=O)(O)OC[C@H]1O[C@@H](n2cnc3c(N)ncnc32)[C@H](O)[C@@H]1OP(=O)(O)O [Ac-CoA]	–	However, ActA significantly increased the levels of Kla and Kac in LDH enzymatically.
